# Experimental data taken from US9446039B2, “Aminoheteroaryl compounds as MTH1 inhibitors” (CEMM—FORSCHUNGSZENTRUM FÜR MOLEKULARE MEDIZIN GMBH, priority 2012, dated 2016).
# Assays:
# Format in all cases: binding
# [1] = biological target: T1, SW480 colon carcinoma cells lysate proteins (Homo sapiens, UniProt P12081); conditions: PreyGene HARS
# T1 sequence (P12081 1-509): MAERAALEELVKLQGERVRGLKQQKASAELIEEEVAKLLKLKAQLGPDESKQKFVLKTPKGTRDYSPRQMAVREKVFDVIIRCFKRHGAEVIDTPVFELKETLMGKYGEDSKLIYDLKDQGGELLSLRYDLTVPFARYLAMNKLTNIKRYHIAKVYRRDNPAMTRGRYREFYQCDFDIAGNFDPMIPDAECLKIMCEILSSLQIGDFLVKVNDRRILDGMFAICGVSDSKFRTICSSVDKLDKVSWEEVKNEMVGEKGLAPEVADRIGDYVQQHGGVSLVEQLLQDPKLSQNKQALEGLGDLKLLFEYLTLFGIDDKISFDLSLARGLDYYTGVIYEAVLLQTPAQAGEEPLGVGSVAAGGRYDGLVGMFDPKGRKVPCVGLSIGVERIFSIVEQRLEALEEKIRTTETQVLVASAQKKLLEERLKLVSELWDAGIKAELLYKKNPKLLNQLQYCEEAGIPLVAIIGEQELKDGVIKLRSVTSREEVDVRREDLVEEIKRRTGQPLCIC
# [2] = biological target: T2, SW480 colon carcinoma cells lysate proteins (Homo sapiens, UniProt P49458); conditions: PreyGene SRP9
# T2 sequence (P49458 1-86): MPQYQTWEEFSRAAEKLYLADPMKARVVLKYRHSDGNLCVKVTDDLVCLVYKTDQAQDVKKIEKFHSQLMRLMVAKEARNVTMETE
# [3] = biological target: T3, SW480 colon carcinoma cells lysate proteins (Homo sapiens, UniProt Q15785); conditions: PreyGene TOMM34
# T3 sequence (Q15785 1-309): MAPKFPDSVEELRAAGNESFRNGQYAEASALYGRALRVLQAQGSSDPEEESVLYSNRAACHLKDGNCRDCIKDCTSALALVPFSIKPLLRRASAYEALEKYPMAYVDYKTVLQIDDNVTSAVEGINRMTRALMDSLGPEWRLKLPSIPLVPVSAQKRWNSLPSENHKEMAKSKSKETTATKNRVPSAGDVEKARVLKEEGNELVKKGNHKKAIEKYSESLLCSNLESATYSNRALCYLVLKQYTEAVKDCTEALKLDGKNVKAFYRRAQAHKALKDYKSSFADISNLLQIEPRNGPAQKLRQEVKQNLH
# [4] = biological target: T4, SW480 colon carcinoma cells lysate proteins (Homo sapiens, UniProt Q7KZF4); conditions: PreyGene SND1
# T4 sequence (Q7KZF4 1-910): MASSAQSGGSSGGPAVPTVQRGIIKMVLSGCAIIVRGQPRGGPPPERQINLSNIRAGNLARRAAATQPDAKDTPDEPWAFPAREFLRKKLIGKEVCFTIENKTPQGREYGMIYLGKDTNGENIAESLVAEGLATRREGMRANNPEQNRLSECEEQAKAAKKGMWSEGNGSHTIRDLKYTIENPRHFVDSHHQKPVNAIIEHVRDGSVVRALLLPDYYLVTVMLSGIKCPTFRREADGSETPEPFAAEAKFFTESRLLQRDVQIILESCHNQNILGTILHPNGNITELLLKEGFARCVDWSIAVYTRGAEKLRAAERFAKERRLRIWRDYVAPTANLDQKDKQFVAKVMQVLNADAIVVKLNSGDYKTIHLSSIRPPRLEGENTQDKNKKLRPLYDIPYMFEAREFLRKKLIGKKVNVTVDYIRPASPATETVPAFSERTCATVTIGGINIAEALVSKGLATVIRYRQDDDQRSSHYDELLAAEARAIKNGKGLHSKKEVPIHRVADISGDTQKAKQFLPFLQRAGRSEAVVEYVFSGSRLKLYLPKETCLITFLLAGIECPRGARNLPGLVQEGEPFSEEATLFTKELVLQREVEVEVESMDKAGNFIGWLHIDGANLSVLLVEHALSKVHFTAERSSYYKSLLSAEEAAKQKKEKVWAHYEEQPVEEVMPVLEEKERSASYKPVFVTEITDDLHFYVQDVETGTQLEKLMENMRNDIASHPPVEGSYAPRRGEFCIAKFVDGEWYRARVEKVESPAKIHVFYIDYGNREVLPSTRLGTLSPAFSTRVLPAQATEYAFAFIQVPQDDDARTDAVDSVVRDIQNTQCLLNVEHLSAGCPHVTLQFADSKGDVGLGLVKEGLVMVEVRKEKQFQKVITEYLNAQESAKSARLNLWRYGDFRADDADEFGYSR
# [5] = biological target: SW480 colon carcinoma cells lysate proteins (Homo sapiens, UniProt Q99623); conditions: PreyGene PHB2; SW480 cells
# [6] = biological target: SW480 colon carcinoma cells lysate proteins (Homo sapiens, UniProt Q9BZK3); conditions: PreyGene NACAP1; SW480 cells
# Sequence of SW480 colon carcinoma cells lysate proteins (Homo sapiens, UniProt Q99623) (Q99623 whole entry): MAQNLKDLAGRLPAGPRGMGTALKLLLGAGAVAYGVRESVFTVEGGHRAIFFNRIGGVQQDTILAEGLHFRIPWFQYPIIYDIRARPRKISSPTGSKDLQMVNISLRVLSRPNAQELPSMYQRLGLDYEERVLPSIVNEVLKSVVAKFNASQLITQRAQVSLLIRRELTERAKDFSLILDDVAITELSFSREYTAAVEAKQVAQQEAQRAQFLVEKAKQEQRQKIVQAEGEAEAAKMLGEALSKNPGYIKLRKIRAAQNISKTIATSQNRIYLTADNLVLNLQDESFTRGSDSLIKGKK
smiles,measurement,setting,value
C[C@H](Oc1cc(-c2cnn(C3CCNCC3)c2)cnc1N)c1c(Cl)ccc(F)c1Cl [(5)-crizotinib],AvgP,[1],0.3676
same,SC.Exp. 1-1,[1],3
same,SC.Exp. 1-2,[1],3
same,SC.Exp. 2-1,[1],0
same,SC.Exp. 2-2,[1],0
same,Sum (SC.Exp.),[1],6
same,AvgP,[2],0.2561
same,SC.Exp. 1-1,[2],2
same,SC.Exp. 1-2,[2],1
same,SC.Exp. 2-1,[2],0
same,SC.Exp. 2-2,[2],2
same,Sum (SC.Exp.),[2],5
same,AvgP,[3],0.1791
same,SC.Exp. 1-1,[3],0
same,SC.Exp. 1-2,[3],2
same,SC.Exp. 2-1,[3],0
same,SC.Exp. 2-2,[3],0
same,Sum (SC.Exp.),[3],2
same,AvgP,[4],0.3957
same,SC.Exp. 1-1,[4],3
same,SC.Exp. 1-2,[4],5
same,SC.Exp. 2-1,[4],0
same,SC.Exp. 2-2,[4],0
same,Sum (SC.Exp.),[4],8
same,AvgP,[5],0
same,SC.Exp. 1-1,[5],9
same,SC.Exp. 1-2,[5],8
same,SC.Exp. 2-1,[5],3
same,SC.Exp. 2-2,[5],5
same,SC.Exp. Sum,[5],25
same,AvgP,[6],0
same,SC.Exp. 1-1,[6],0
same,SC.Exp. 1-2,[6],0
same,SC.Exp. 2-1,[6],1
same,SC.Exp. 2-2,[6],0
same,SC.Exp. Sum,[6],1
